In PubChem BioAssay (NCI):
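Values below derive from 48-hour exposures of cells grown in 96-well plates, with endpoints linearly interpolated between the two concentrations bracketing the appropriate inhibition level. GI50 is the concentration that inhibits growth by half. TGI marks complete inhibition of growth.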

What was measured:
Assay in all cases: growth of human tumour cells (NCI), 48 h
[1] = test system: SK-MEL-2 melanoma
[2] = test system: SNB-78 CNS
[3] = test system: ACHN renal
[4] = test system: M14 melanoma
[5] = test system: SK-MEL-5 melanoma
[6] = test system: HOP-92 NSCLC
[7] = test system: A549 NSCLC
[8] = test system: NCI-H23 lung
[9] = test system: SF-539 CNS
[10] = test system: OVCAR-4 ovarian
[11] = test system: TK-10 renal
[12] = test system: NCI-H522 lung
[13] = test system: LXFL 529 NSCLC
[14] = test system: NCI-H460 lung
[15] = test system: SW-620 colon
[16] = test system: SF-268 CNS
[17] = test system: OVCAR-8 ovarian
[18] = test system: HT29 colon
[19] = test system: SK-MEL-28 melanoma
[20] = test system: UO-31 renal
[21] = test system: HCC-2998 colon
[22] = test system: UACC-257 melanoma
[23] = test system: SN12C renal
[24] = test system: OVCAR-3 ovarian
[25] = test system: SF-295 CNS
[26] = test system: HOP-62 NSCLC
[27] = test system: IGROV1 ovarian
[28] = test system: 786-0 renal
[29] = test system: KM12 colon
[30] = test system: LOX IMVI melanoma
[31] = test system: HCT-15 colon
[32] = test system: U251 CNS
[33] = test system: EKVX NSCLC
[34] = test system: UACC-62 melanoma
[35] = test system: DLD-1 colon
[36] = test system: CAKI-1 renal
[37] = test system: M19-MEL melanoma
[38] = test system: SNB-19 CNS
[39] = test system: HCT-116 colon
[40] = test system: DMS 273 small cell lung
[41] = test system: SR leukemia
[42] = test system: RXF 393 renal
[43] = test system: DMS 114 small cell lung
[44] = test system: KM20L2 colon
[45] = test system: SNB-75 CNS
[46] = test system: NCI-H226 lung
[47] = test system: SK-OV-3 ovarian
[48] = test system: CCRF-CEM leukemia
[49] = test system: MALME-3M melanoma
[50] = test system: COLO 205 colon
[51] = test system: OVCAR-5 ovarian
[52] = test system: MOLT-4 leukemia
[53] = test system: RPMI-8226 leukemia
[54] = test system: K-562 leukemia
[55] = test system: HL-60(TB) leukemia
[56] = test system: A498 renal
[57] = test system: HS 578T breast
[58] = test system: MCF7 breast
[59] = test system: DU-145 prostate
[60] = test system: PC-3 prostate
[61] = test system: BT-549 breast
[62] = test system: MDA-MB-435
[63] = test system: MDA-MB-231 breast
[64] = test system: NCI/ADR-RES ovarian
[65] = test system: MDA-N
[66] = test system: T-47D breast

## Cc1ccc(C(=O)Nc2ccccc2)cc1N=NN(C)C
[1]
  TGI: > 100 µM
[2]
  TGI: > 100 µM
[3]
  TGI: > 100 µM
[4]
  TGI: > 100 µM
[5]
  TGI: > 100 µM
[6]
  TGI: > 100 µM
[7]
  TGI: > 100 µM
[8]
  TGI: > 100 µM
[9]
  TGI: > 100 µM
[10]
  TGI: > 100 µM
[11]
  TGI: > 100 µM
[12]
  TGI: > 100 µM
[13]
  TGI: > 100 µM
[14]
  TGI: > 100 µM
[15]
  TGI: > 100 µM
[16]
  TGI: > 100 µM
[17]
  TGI: > 100 µM
[18]
  TGI: > 100 µM
[19]
  TGI: > 100 µM
[20]
  TGI: > 100 µM
[21]
  TGI: > 100 µM
[22]
  TGI: > 100 µM
[23]
  TGI: > 100 µM
[24]
  TGI: > 100 µM
[25]
  TGI: > 100 µM
[26]
  TGI: > 100 µM
[27]
  TGI: > 100 µM
[28]
  TGI: 44 µM
[29]
  TGI: > 100 µM
[30]
  TGI: > 100 µM
[31]
  TGI: > 100 µM
[32]
  TGI: > 100 µM
[33]
  TGI: > 100 µM
[34]
  TGI: > 100 µM
[35]
  TGI: > 100 µM
[36]
  TGI: > 100 µM
[37]
  TGI: > 100 µM
[38]
  TGI: > 100 µM
[39]
  TGI: > 100 µM
[40]
  TGI: > 100 µM

## [Cl-].[Cl-].[Cl-].[O-]c1cccc2cccnc12.[O-]c1cccc2cccnc12.[O]=[Mo]
[41]
  TGI: > 100 µM
[1]
  GI50: 3.37 µM
  TGI: 18.1 µM
[4]
  GI50: 1.81 µM
  TGI: 5.48 µM
[5]
  TGI: 3.89 µM
[7]
  GI50: 3.59 µM
  TGI: > 100 µM
[42]
  GI50: 2 µM
  TGI: 4.89 µM
[8]
  GI50: 2.6 µM
  TGI: 8.38 µM
[9]
  GI50: 7.34 µM
  TGI: > 100 µM
[10]
  GI50: 3.9 µM
  TGI: 47 µM
[11]
  GI50: 15.2 µM
  TGI: > 100 µM
[43]
  TGI: 3.13 µM
[14]
  GI50: 2.52 µM
  TGI: 11.7 µM
[15]
  GI50: 1.92 µM
  TGI: > 100 µM
[16]
  GI50: 6.33 µM
  TGI: 55.2 µM
[17]
  GI50: 2.53 µM
  TGI: 12.3 µM
[18]
  GI50: 2.88 µM
  TGI: 11.5 µM
[44]
  TGI: 70.6 µM
[19]
  GI50: 2.43 µM
  TGI: 9.41 µM
[20]
  GI50: 4.09 µM
  TGI: 24.1 µM
[21]
  GI50: 2.41 µM
  TGI: 5.69 µM
[22]
  GI50: 2.1 µM
  TGI: 6.69 µM
[23]
  GI50: 6.71 µM
  TGI: > 100 µM
[45]
  GI50: 5.08 µM
  TGI: > 100 µM
[24]
  GI50: 6.88 µM
  TGI: > 100 µM
[25]
  GI50: 2.8 µM
  TGI: 17.2 µM
[27]
  TGI: 35 µM
[28]
  GI50: 18.5 µM
  TGI: 99.8 µM
[29]
  GI50: 0.448 µM
  TGI: 2.08 µM
[30]
  GI50: 2.33 µM
  TGI: 22 µM
[31]
  GI50: 2.39 µM
  TGI: > 100 µM
[32]
  GI50: 3.57 µM
  TGI: 40.5 µM
[33]
  GI50: 15.4 µM
  TGI: 78.4 µM
[46]
  GI50: 2.28 µM
  TGI: 14.2 µM
[34]
  GI50: 2.49 µM
  TGI: 7.41 µM
[35]
  TGI: > 100 µM
[36]
  GI50: 20.6 µM
  TGI: > 100 µM
[47]
  GI50: 15.1 µM
  TGI: 39.6 µM
[48]
  GI50: 0.35 µM
  TGI: > 100 µM
[49]
  GI50: 2.25 µM
  TGI: 4.99 µM
[38]
  GI50: 4.87 µM
  TGI: > 100 µM
[39]
  GI50: 2.58 µM
  TGI: 36.4 µM
[50]
  GI50: 4.6 µM
[51]
  GI50: 2.85 µM
  TGI: 8.6 µM
[40]
  TGI: 4.41 µM

## COc1ccc(C(N)=O)c(OC)c1OCc1ccccc1
[1]
  TGI: > 100 µM
[2]
  TGI: > 100 µM
[3]
  TGI: > 100 µM
[4]
  TGI: > 100 µM
[52]
  TGI: > 100 µM
[53]
  TGI: > 100 µM
[5]
  TGI: > 100 µM
[6]
  TGI: > 100 µM
[7]
  TGI: > 100 µM
[42]
  TGI: 7.11 µM
[8]
  TGI: > 100 µM
[9]
  TGI: > 100 µM
[10]
  TGI: > 100 µM
[11]
  TGI: > 100 µM
[12]
  TGI: 81.7 µM
[13]
  TGI: > 100 µM
[43]
  TGI: > 100 µM
[14]
  TGI: > 100 µM
[15]
  TGI: > 100 µM
[16]
  TGI: > 100 µM
[17]
  TGI: > 100 µM
[18]
  TGI: > 100 µM
[44]
  TGI: > 100 µM
[19]
  TGI: > 100 µM
[20]
  TGI: > 100 µM
[21]
  TGI: > 100 µM
[23]
  TGI: > 100 µM
[45]
  TGI: > 100 µM
[24]
  TGI: > 100 µM
[25]
  TGI: > 100 µM
[26]
  TGI: > 100 µM
[27]
  TGI: > 100 µM
[28]
  TGI: > 100 µM
[29]
  TGI: > 100 µM
[30]
  TGI: > 100 µM
[31]
  TGI: > 100 µM
[32]
  TGI: > 100 µM
[54]
  TGI: > 100 µM
[33]
  TGI: > 100 µM
[46]
  TGI: > 100 µM
[34]
  TGI: > 100 µM
[35]
  TGI: > 100 µM
[47]
  TGI: > 100 µM
[48]
  TGI: > 100 µM
[55]
  TGI: > 100 µM
[37]
  TGI: > 100 µM
[38]
  TGI: > 100 µM
[39]
  TGI: > 100 µM
[50]
  TGI: > 100 µM
[51]
  TGI: > 100 µM
[56]
  TGI: > 100 µM
[40]
  TGI: > 100 µM

## CC12CCC(C(Br)(Br)C1=O)C2(C)C (stereo unspecified)
[41]
  TGI: 12.9 µM
[1]
  TGI: 0.98 µM
[3]
  TGI: 7.69 µM
[4]
  TGI: 3.98 µM
[52]
  TGI: 2.53 µM
[53]
  TGI: 1.78 µM
[5]
  TGI: 4.74 µM
[6]
  TGI: 2.81 µM
[7]
  TGI: > 100 µM
[42]
  TGI: 2.54 µM
[57]
  TGI: 9.29 µM
[8]
  TGI: 2.21 µM
[9]
  TGI: 16.9 µM
[10]
  TGI: 5.58 µM
[11]
  TGI: 11 µM
[12]
  TGI: 0.155 µM
[58]
  TGI: > 36.8 µM
[14]
  TGI: 27.2 µM
[15]
  TGI: 0.71 µM
[16]
  TGI: 1.22 µM
[59]
  TGI: 37.1 µM
[17]
  TGI: 11.3 µM
[18]
  TGI: 3.19 µM
[19]
  TGI: 6.46 µM
[20]
  TGI: 3.25 µM
[21]
  TGI: 4.91 µM
[22]
  TGI: 16.7 µM
[23]
  TGI: 5.84 µM
[45]
  TGI: 11.6 µM
[60]
  TGI: 7.98 µM
[24]
  TGI: 4.1 µM
[25]
  TGI: 22.4 µM
[26]
  TGI: 13.6 µM
[27]
  TGI: 0.516 µM
[28]
  TGI: 3.84 µM
[29]
  TGI: 16.1 µM
[30]
  TGI: 11.3 µM
[61]
  TGI: 2.68 µM
[62]
  TGI: 2.24 µM
[31]
  TGI: 3.57 µM
[32]
  TGI: 0.224 µM
[54]
  TGI: 13.1 µM
[33]
  TGI: 2.81 µM
[63]
  TGI: 1.51 µM
[64]
  TGI: 1.06 µM
[46]
  TGI: 8.64 µM
[34]
  TGI: 10.1 µM
[65]
  TGI: 2.65 µM
[36]
  TGI: 14.9 µM
[47]
  TGI: > 31.6 µM
[48]
  TGI: 0.196 µM
[49]
  TGI: 1 µM
[55]
  TGI: 0.149 µM
[38]
  TGI: > 57.6 µM
[39]
  TGI: 3.71 µM
[50]
  TGI: 14.7 µM
[51]
  TGI: 6.57 µM
[66]
  TGI: 1.02 µM
[56]
  TGI: 17.5 µM
